Test results: ChEMBL document CHEMBL1130070, “Zinc ejection as a new rationale for the use of cystamine and related disulfide-containing antiviral agents in the treatment of AIDS” (J Med Chem, 1997); call rule not given here

Tests used:
[1] = tested on: CEM-SS; test: Antiviral activity against HIV-1ADA in […]; format: functional, cell-based; conditions: Homo sapiens
[2] = tested on: CEM-SS; test: Antiviral activity against HIV-1 in CEM-SS cells using […] assay; format: functional, cell-based; conditions: Homo sapiens
[3] = target: Human immunodeficiency virus type 1 reverse transcriptase (Human immunodeficiency virus 1, UniProt Q72547); test: Compound was tested for the effect on HIV-1 Reverse Transcriptase; NI = No inhibition
[4] = target: Human immunodeficiency virus type 1 protease (Human immunodeficiency virus 1, UniProt Q72874); test: Compound was tested for effects on HIV-1 protease; NI = No inhibition
[5] = tested on: Human immunodeficiency virus 1; test: Compound was tested for binding of HIV-1 to CEM-ss cells; NI = No inhibition; format: functional, organism-based
[6] = tested on: CEM-SS; test: Antiviral activity against HIV-1ADA in […]; I = No antiviral activity; format: functional, cell-based, Homo sapiens
[7] = tested on: CEM-SS; test: Antiviral activity against HIV-1 in CEM-SS cells using […] assay; I = No antiviral activity; format: functional, cell-based, Homo sapiens

## CCN(CC)C(=S)S [DITIOCARB]
[1]
  IC50: > 100 µM
[2]
  IC50: > 100 µM
[3]
  I50: Not Active
[4]
  I50: Not Active
[5]
  I50: Not Active
[6]
  EC50: Not Active
[7]
  EC50: Not Active

## NCCSSCCN [CYSTAMINE]
[1]
  EC50: 4.3 µM
  IC50: > 100 µM
[2]
  EC50: 56.2 µM
  IC50: 172 µM
[3]
  I50: Not Active
[4]
  I50: Not Active
[5]
  I50: Not Active

## CCN(CC)C(=S)SSC(=S)N(CC)CC [DISULFIRAM]
[1]
  IC50: > 100 µM
[2]
  IC50: 3.9 µM
[3]
  I50: Not Active
[4]
  I50: Not Active
[5]
  I50: Not Active
[6]
  EC50: Not Active
[7]
  EC50: Not Active

## NCCS [CYSTEAMINE]
[1]
  EC50: 53.7 µM
  IC50: > 100 µM
[2]
  EC50: 41.6 µM
  IC50: 71 µM
[3]
  I50: Not Active
[4]
  I50: Not Active
[5]
  I50: Not Active

## C/C(=C(\CCO)SS/C(CCO)=C(/C)N(C=O)Cc1cnc(C)nc1N)N(C=O)Cc1cnc(C)nc1N
[1]
  IC50: > 100 µM
[2]
  IC50: 535 µM
[3]
  I50: Not Active
[4]
  I50: Not Active
[5]
  I50: Not Active
[6]
  EC50: Not Active
[7]
  EC50: Not Active
